Measured values: publication PMC6321145 (Molecules, 2018)

Tests used:
Aβ1–42 = molecular target: T1, Aβ1–42 (Homo sapiens, UniProt P05067); assay: Inhibition of self-induced Aβ1–42 aggregation (ThT fluorescence assay); format: biochemical; conditions: for IC50: ThT fluorescence method, mean ± SD of three experiments, read-out: IC50 against self-induced Aβ1–42 aggregation
T1 construct: Aβ1–42 (Sigma, St. Louis, MO, USA; counterion, NaOH) stock solution was prepared by dissolving Aβ1–42 peptide in ammonium hydroxide; purchased Sigma
Procedure: The formation and aggregation of Aβ1–42 in the brain leads to neurotoxicity in AD. In order to evaluate the activity of our new synthetic compounds to inhibit Aβ1–42 self-induced aggregation, the thioflavin (ThT) fluorescence assay was performed.
All ThT experiments were performed according to our previously published methods. Aβ1–42 (Sigma, St. Louis, MO, USA; counterion, NaOH) stock solution was prepared by dissolving Aβ1–42 peptide in ammonium hydroxide (1% v/v), and diluting with 20 mM phosphate buffer (pH 7.4) to 100 μM. The tested compounds were firstly dissolved in DMSO at a concentration of 10 mM, and then diluted with 20 mM phosphate buffer (pH 7.4) to 40 μM.
For the inhibition of self-induced Aβ1–42 aggregation. Aβ1–42 peptide (2 μL, 50 μM, final concentration) with the tested compound (2 μL, 20 μM, final concentration) or 20 mM phosphate buffer (2 μL) was incubated in 20 mM phosphate buffer (pH 7.4) at 37 °C for 72 h. After incubation, the samples were diluted to a final volume of 36 μL with 50 mM glycine-NaOH buffer (pH 8.5) containing 5 μM Thioflavin T. Fluorescence signal was measured (excitation wavelength 450 nm, emission wavelength 485 nm, and slit widths set to 5 nm) on a monochromator-based multimode microplate reader ([…] M1000, TECAN, Hombrechtikon, Switzerland), adapted for 384-well microtiter plates. […] Each compound was examined in triplicate.

[1] = Oxygen radical absorbance capacity with fluorescein (ORAC-FL) assay
Procedure: Oxidative stress is another crucial event in AD pathogenesis. In order to determine antioxidant activities of our synthetic compounds, the oxygen radical absorbance capacity method with fluorescein (ORAC-FL) assay was performed. with Trolox (6-hydroxy-2,5,7,8-tetramethylchroman-2-carboxylic acid) as the standard, and their antioxidant activity was expressed as Trolox equivalents.
The antioxidant activities of the compounds in vitro were determined by the oxygen radical absorbance capacity fluorescein (ORAC-FL) assay. The tested compounds and (±)-6-hydroxy-2,5,7,8-tetramethylchroman-2-carboxylic acid (Trolox) were dissolved in DMSO at a concentration of 10 mM, and then diluted with 75 mM potassium phosphate buffer (pH 7.4) to 50 μM and 10 μM for use. The fluorescein (FL) stock solution (3.4 mM) was diluted with the same buffer to 136 nM. All the assays were conducted with 75 mM potassium phosphate bufffer (pH 7.4), and the final reaction mixture was 200 μL.
The mixture of compounds (or buffer) (20 μL) and fluorescein (FL, 120 μL) were incubated for 15 min at 37 °C in a black 96-well plate. Then 2,2′-azobis-(amidino-propane)-dihydrochloride (AAPH) solution (60 μL, 40 mM) was rapidly added to the reaction mixture. The fluorescence was recorded every 5 min for 240 min at 485 nm (excitation wavelength) and 535 nm (emission wavelength) (Varioskan Flash Multimode Reader, Thermo Scientific, Waltham, MA, USA), and each sample was prepared and measured for three times independently. […] The net AUC for a sample was calculated using the expression net AUC = AUCsample − AUCblank, The ORAC-FL value of each sample was calculated using the equation of net AUCsample/(AUCTrolox – AUCblank), which was expressed as Trolox equivalents.

SH-SY5Y cells = assay: Cellular ROS detection (DCFH-DA) in SH-SY5Y cells treated with t-BuOOH; format: cell-based, human; conditions: compound 2.5 μM; 0.1 mM t-BuOOH; compared with Trolox
Procedure: To further investigate their antioxidant activity in SH-SY5Y cells, cellular ROS detection assay based on dichlorofluorescein diacetate (DCFH-DA) was performed. with Trolox and N-acetyl-L-cysteine (NAC) as reference compounds.
SH-SY5Y cells were maintained in Dulbecco’s modified Eagle’s medium (DEME) and supplemented with 1 mM glutamine, 10% fetal calf serum, 100 U/mL penicillin, and 100 μg/mL streptomycin. The cultures were maintained at 37 °C in a humidified incubator containing 5% CO2 and were passaged twice weekly.
The antioxidant activity of the compounds in SH-SY5Y cells were tested with the fluorescent probe (2′,7′-dichlorofluorescein diacetate, DCFH-DA) as reported with some variation. SH-SY5Y cells were sub-cultured in 96-well plates at a seeding density of 1 × 10^4 cells per well for 24 h, then the medium was removed, the tested compounds (2.5 μM) was added and incubated for another 24 h at 37 °C. After that, the cells were washed with PBS and incubated with 5 μM DCFH-DA in PBS at 37 °C in 5% CO2 for 30 min. Then DCFH-DA was removed, the cells were washed three times and incubated with 0.1 mM t-BuOOH in PBS for 30 min. After the incubation, the cell fluorescence from each well was measured at 485 nm excitation and 535 nm emission with a monochromator based multimode microplate reader ([…] M1000).

[2] = Cytotoxicity on SH-SY5Y cells (MTT); format: cell-based, human; conditions: human, SH-SY5Y neuroblastoma cells; MTT, 24 h; mean ± SEM of three measurements
Procedure: The cytotoxicity of our synthesized compounds was examined in human neuroblastoma SH-SY5Y cells. The cell viability was determined by using methyl thiazolyl tetrazolium (MTT) colorimetry, the cells were treated with different concentrations of compounds (0–100 μM). The result is shown in the Supplementary Materials (Table S1).
The cytotoxicities of the compounds were evaluated using the MTT assay. SH-SY5Y cells were subcultured in 96-well plates at a seeding density of 1 × 10^4 cells per well. After 24 h, the medium was removed and treated with different concentrations of tested compounds for 24 h at 37 °C. The survival of cells was determined with MTT assay. Then 80 μL of medium and 20 μL of MTT (0.5 mg/mL, final concentration) were added to each well and incubated for another 4 h. After the removal of MTT, the formazan crystals were dissolved in DMSO. The amount of formazan was measured using a microculture plate reader at the wavelength of 570 nm. Each concentration was performed in triplicate.

[3] = inhibitor 20 μM, Aβ1–42 50 μM, ThT, 37 °C, 72 h, mean ± SD

T1 sequence (P05067 672-713): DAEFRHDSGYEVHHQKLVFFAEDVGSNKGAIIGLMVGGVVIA

SMILES	inhibition at 20 µM (Aβ1–42; [3]) [%]	ORAC ([1]; compound 1 μM)	ORAC ([1]; compound 5 μM)	IC50 (Aβ1–42) [µM]	melting point [°C]	Antioxidant activity in SH-SY5Y cells (ROS generation, DCFH-DA fluorescence) (SH-SY5Y cells)	IC50 at 24 h [2] [µM]	Aβ1–42 Aggregation Inhibition (%) (Aβ1–42; [3])
CCN(CC)c1ccc(/C=C/c2cc(N3CCCCC3)c3ccccc3n2)cc1 [Compound 4b1, reference compound]	83.5 ± 1.4	3.70 ± 0.11 μmol of Trolox equivalents/μmol of tested compounds	3.91 ± 0.11 μmol of Trolox equivalents/μmol of tested compounds	–	–	–	–	–
CN(C)c1ccc(/C=C/c2cc(N3CCCCC3)c3ccccc3n2)cc1 [Compound 4b2, reference compound]	81.2 ± 0.8	2.91 ± 0.11 μmol of Trolox equivalents/μmol of tested compounds	3.12 ± 0.10 μmol of Trolox equivalents/μmol of tested compounds	–	–	–	–	–
CCN(CC)CCCNc1cc(/C=C/c2ccc(N(CC)CC)cc2)nc2ccccc12 [Compound 6a1, (E)-N^1-(2-(4-(Diethylamino)styryl)quinolin-4-yl)-N^3,N^3-diethylpropane-1,3-diamine]	90.2 ± 1.3	5.92 ± 0.03 μmol of Trolox equivalents/μmol of tested compounds	–	7.8 ± 0.4	182.3 to 184	more antioxidant activity than Trolox	189	–
CCN(CC)CCCNc1cc(/C=C/c2ccc(N(C)C)cc2)nc2ccccc12 [Compound 6a2, (E)-N^1-(2-(4-(Dimethylamino)styryl)quinolin-4-yl)-N^3,N^3-diethylpropane-1,3-diamine]	88.5 ± 1.5	5.74 ± 0.09 μmol of Trolox equivalents/μmol of tested compounds	–	–	168.5 to 170.1	–	187.5 ± 0.2	–
CCN(CC)CCCNc1cc(/C=C/c2c[nH]c3ccccc23)nc2ccccc12 [Compound 6a3, (E)-N^1-(2-(2-(1H-Indol-3-yl)vinyl)quinolin-4-yl)-N^3,N^3-diethylpropane-1,3-diamine]	84.3 ± 2.1	1.26 ± 0.06 μmol of Trolox equivalents/μmol of tested compounds	1.73 ±0.07 μmol of Trolox equivalents/μmol of tested compounds	–	194.3 to 195.1	–	147.8 ± 0.3	–
CN(C)CCCNc1cc(/C=C/c2ccc(N(C)C)cc2)nc2ccccc12 [Compound 6b2, (E)-N^1-(2-(4-(Dimethylamino)styryl)quinolin-4-yl)-N^3,N^3-dimethylpropane-1,3-diamine]	92.1 ± 1.3	5.61 ± 0.09 μmol of Trolox equivalents/μmol of tested compounds	5.88 ± 0.01 μmol of Trolox equivalents/μmol of tested compounds	6.1 ± 0.8	151.2 to 153.3	–	228	–
CCN(CC)c1ccc(/C=C/c2cc(NCCN(C)C)c3ccccc3n2)cc1 [Compound 6c1, (E)-N^1-(2-(4-(Diethylamino)styryl)quinolin-4-yl)-N^2,N^2-dimethylethane-1,2-diamine]	85.1 ± 1.4	2.79 ± 0.04 μmol of Trolox equivalents/μmol of tested compounds	3.24 ± 0.10 μmol of Trolox equivalents/μmol of tested compounds	–	145.2 to 147.1	–	154.3 ± 0.5	–
CN(C)CCNc1cc(/C=C/c2ccc(N(C)C)cc2)nc2ccccc12 [Compound 6c2, (E)-N^1-(2-(4-(Dimethylamino)styryl)quinolin-4-yl)-N^2,N^2-dimethylethane-1,2-diamine]	83.9 ± 2.4	3.28 ± 0.09 μmol of Trolox equivalents/μmol of tested compounds	3.53 ± 0.07 μmol of Trolox equivalents/μmol of tested compounds	–	148.9 to 149.6	–	127.5 ± 0.4	–
CCCCNc1cc(/C=C/c2ccc(N(CC)CC)cc2)nc2ccccc12 [Compound 6d1, (E)-N-Butyl-2-(4-(diethylamino)styryl)quinolin-4-amine]	80.5 ± 1.4	1.38 ± 0.02 μmol of Trolox equivalents/μmol of tested compounds	1.56 ± 0.05 μmol of Trolox equivalents/μmol of tested compounds	–	172.5 to 173.8	–	119.3 ± 0.7	–
CCCCNc1cc(/C=C/c2ccc(N(C)C)cc2)nc2ccccc12 [Compound 6d2, (E)-N-Butyl-2-(4-(dimethylamino)styryl)quinolin-4-amine]	79.2 ± 2.3	0.75 ± 0.06 μmol of Trolox equivalents/μmol of tested compounds	0.95 ± 0.09 μmol of Trolox equivalents/μmol of tested compounds	–	165.3 to 167.1	–	112.4 ± 0.6	–
CCN(CC)c1ccc(/C=C/c2cc(NCC(C)C)c3ccccc3n2)cc1 [Compound 6e1, (E)-2-(4-(Diethylamino)styryl)-N-isobutylquinolin-4-amine]	77.9 ± 1.3	1.71 ± 0.05 μmol of Trolox equivalents/μmol of tested compounds	1.92 ± 0.11 μmol of Trolox equivalents/μmol of tested compounds	–	170.2 to 171.7	–	143.6 ± 0.7	–
CC(C)CNc1cc(/C=C/c2ccc(N(C)C)cc2)nc2ccccc12 [Compound 6e2, (E)-2-(4-(Dimethylamino)styryl)-N-isobutylquinolin-4-amine]	77.5 ± 1.5	1.68 ± 0.06 μmol of Trolox equivalents/μmol of tested compounds	1.78 ± 0.05 μmol of Trolox equivalents/μmol of tested compounds	–	171.8 to 173.2	–	141.9 ± 0.5	–
COc1cc(/C=C/C(=O)CC(=O)/C=C/c2ccc(O)c(OC)c2)ccc1O [Cur, curcumin, reference compound]	–	–	–	–	–	–	–	49.3 ± 1.2
CC(=O)N[C@@H](CS)C(=O)O [NAC, N-acetyl-L-cysteine, reference compound]	–	–	–	–	–	didn’t remove ROS generation	–	–
Cc1c(C)c2c(c(C)c1O)CCC(C)(C(=O)O)O2 (stereo not drawn) [Trolox, 6-hydroxy-2,5,7,8-tetramethylchroman-2-carboxylic acid, reference compound]	–	–	–	–	–	decrease the intensity of fluorescence	–	–
